Measurements taken from ChEMBL document CHEMBL1149051, “Isolation of flavins from the Amazonian shrub Faramea guianesis” (1994).

Assays:
Format in all cases: functional
Leishmania amazonensis [1] = assay: Antileishmanial activity against Leishmania amazonensis H142 Guianese amastigotes in BALB/c mouse macrophages assessed as inhibition of infection at 0.05 mg/ml relative to control
Leishmania amazonensis [2] = assay: Antileishmanial activity against Leishmania amazonensis H142 Guianese amastigotes in BALB/c mouse macrophages assessed as inhibition of infection at 0.02 mg/ml relative to control
Leishmania amazonensis [3] = assay: Antileishmanial activity against Leishmania amazonensis H142 Guianese amastigotes in BALB/c mouse macrophages assessed as inhibition of infection at 0.04 mg/ml relative to control
Leishmania amazonensis [4] = assay: Antileishmanial activity against Leishmania amazonensis H142 Guianese amastigotes in BALB/c mouse macrophages assessed as survival of peritoneal macrophages at 0.25 mg/ml relative to control

Oc1ccc(C2CCc3c(O)cc(O)cc3O2)cc1 (centres undefined)
inhibition at 50 µg/mL (Leishmania amazonensis [1]): 57% | inhibition at 20 µg/mL (Leishmania amazonensis [2]): 100% | inhibition at 40 µg/mL (Leishmania amazonensis [3]): 100% | survival at 250 µg/mL (Leishmania amazonensis [4]): 0%
